Assay results: paper PMC4890260, “Engineering Bacillus licheniformis for the production of meso-2,3-butanediol” (Biotechnology for Biofuels, 2016)

Experiments:
WX-02 GDH [1] = target: T1, WX-02 GDH (Bacillus licheniformis, UniProt X5FDW5); assay: NADH formation at […] nm; type: biochemical; conditions: 4 mM NAD+; 50 mM substrate; Z buffer pH 7.0; 37 °C; 1 mM MgSO4, 10 mM DTT
T1 construct: primers encode native N-term MSKSVK (MG added before) and C-term AESYHD
T1 sequence (X5FDW5 1-367): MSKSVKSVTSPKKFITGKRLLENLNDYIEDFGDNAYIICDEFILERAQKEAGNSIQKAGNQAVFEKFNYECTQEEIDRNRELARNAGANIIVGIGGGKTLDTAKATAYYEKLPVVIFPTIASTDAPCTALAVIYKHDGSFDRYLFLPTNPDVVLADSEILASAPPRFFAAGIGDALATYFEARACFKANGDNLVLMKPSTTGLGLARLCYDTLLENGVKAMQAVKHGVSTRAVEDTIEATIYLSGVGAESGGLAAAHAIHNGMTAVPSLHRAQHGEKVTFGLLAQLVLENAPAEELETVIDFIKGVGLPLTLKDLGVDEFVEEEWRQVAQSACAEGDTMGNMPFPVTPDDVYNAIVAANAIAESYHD

WX-02 GDH [2] = target: T1, WX-02 GDH; assay: NADH oxidation at […] nm; type: biochemical; conditions: 0.2 mM NADH; 50 mM substrate; Z buffer pH 7.0; 37 °C; 1 mM MgSO4, 10 mM DTT

## C[C@@H](O)[C@@H](C)O [D-2,3-BD]
WX-02 GDH [1]
  NADH formation at 340 nm: this enzyme exhibited the highest activity towards D-2,3-BD among various substrates

## CC(=O)[C@@H](C)O [D-AC]
WX-02 GDH [2]
  NADH oxidation at 340 nm: WX-02 GDH accepted D-AC, D-2,3-BD, meso-2,3-BD, and glycerol as substrates
